# Experimental data: article PMC12051030, “Identification of inhibitors of the Salmonella FraB deglycase, a drug target” (FEBS Open Bio, 2025)
# Where two headings read alike, the source gives them in different places.
# B1: FraB (Salmonella enterica subsp. enterica serovar Typhimurium str. LT2) (protein)
# chain: MMGMKETVSNIVTSQAEKGGVKHVYYVACGGSYAAFYPAKAFLEKEAKALTVGLYNSGEFINNPPVALGENAVVVVASHKGNTPETIKAAEIARQHGAPVIGLTWIMDSPLVAHCDYVETYTFGDGKDIAGEKTMKGLLSAVELLQQTEGYAHYDDFQDGVSKINRIVWRACEQVAERAQAFAQEYKDDKVIYTVASGAGYGAAYLQSICIFMEMQWIHSACIHSGEFFHGPFEITDANTPFFFQFSEGNTRAVDERALNFLKKYGRRIEVVDAKELGLSTIKTTVIDYFNHSLFNNVYPVYNRALAEARQHPLTTRRYMWKVEY
# How the values were obtained:
# FraB [1] = target: T1, FraB (Salmonella enterica subsp. enterica serovar Typhimurium, UniProt Q8ZLD0); experiment: FraB assay, Michaelis–Menten kinetics with substrate; assay type: biochemical
# Experimental: The substrate for FraB, 6‐P‐F‐Asp, was synthesized as previously described. FraB activity was monitored as described previously, with the following changes. The final reaction (30 μL) consisted of 25 mM HEPES pH 8 (at 20 °C), 5 mM MgCl2, 0.1 mM ethylene glycol tetraacetic acid (EGTA), 0.5 mM NAD^+, 1 mU G6PD from Leuconostoc mesenteroides (#LS003981; Worthington Biochemicals, Lakewood, NJ, USA), 100 nM His6‐FraB, and 0–3 mM 6‐P‐F‐Asp. The reaction mixture without substrate (29 μL) was added to one well of a 384‐well polystyrene white μClear® microplate (#781095; Greiner Bio‐One, Monroe, NC, USA) and incubated at 37 °C for 2 min, prior to the addition of 1 μL substrate to initiate the reaction. NADH generation was monitored using either absorbance (340 nm) or fluorescence (350 nm excitation, 450 nm emission) and with either an INFINITE M1000 PRO (Tecan, Mannedorf, Switzerland) or Synergy H1 (Biotek, Winooski, VT, USA) plate reader. Absorbance/fluorescence was plotted against time and slopes were obtained by linear regression analyses. These slopes were converted into initial velocities by dividing them by either the absorbance extinction coefficient (ε340 = 6,220 M ^−1·cm^−1) or the molar fluorescence determined based on standard curves obtained in different plate readers (23,646 RFUs·μM ^−1, Tecan; 285,108 RFUs·μM ^−1, Biotek; Fig. S2). […]
# FraB [2] = target: T1, FraB; conditions: previously reported; cited from earlier work
# [3] = substrate: O=C(O)C[C@H](NCC1(O)O[C@H](COP(=O)(O)O)[C@@H](O)[C@@H]1O)C(=O)O; experiment: FraB assay, Michaelis–Menten kinetics with substrate; assay type: biochemical, Salmonella; conditions: pH 8.0
# Experimental: The substrate for FraB, 6‐P‐F‐Asp, was synthesized as previously described. FraB activity was monitored as described previously, with the following changes. The final reaction (30 μL) consisted of 25 mM HEPES pH 8 (at 20 °C), 5 mM MgCl2, 0.1 mM ethylene glycol tetraacetic acid (EGTA), 0.5 mM NAD^+, 1 mU G6PD from Leuconostoc mesenteroides (#LS003981; Worthington Biochemicals, Lakewood, NJ, USA), 100 nM His6‐FraB, and 0–3 mM 6‐P‐F‐Asp. The reaction mixture without substrate (29 μL) was added to one well of a 384‐well polystyrene white μClear® microplate (#781095; Greiner Bio‐One, Monroe, NC, USA) and incubated at 37 °C for 2 min, prior to the addition of 1 μL substrate to initiate the reaction. NADH generation was monitored using either absorbance (340 nm) or fluorescence (350 nm excitation, 450 nm emission) and with either an INFINITE M1000 PRO (Tecan, Mannedorf, Switzerland) or Synergy H1 (Biotek, Winooski, VT, USA) plate reader. Absorbance/fluorescence was plotted against time and slopes were obtained by linear regression analyses. These slopes were converted into initial velocities by dividing them by either the absorbance extinction coefficient (ε340 = 6,220 M ^−1·cm^−1) or the molar fluorescence determined based on standard curves obtained in different plate readers (23,646 RFUs·μM ^−1, Tecan; 285,108 RFUs·μM ^−1, Biotek; Fig. S2). These initial velocities (v o) in turn were plotted against [6‐P‐F‐Asp] to obtain Michaelis–Menten curves that were fit to the formula v o = (V max × [S])/(K m + [S]) by Kaleidagraph (Version 4.5.3; Synergy Software, Reading, PA, USA). The activity of recombinant FraB (Fig. S3) was similar to that as reported previously.
# [4] = other: newer batches of substrate
# [5] = other: representative Michaelis-Menten plot, Fig. S3, curve-fit errors
Molecule,K m (FraB [1]; approximate value used for [S]/K m),K m (FraB [1]; newer batches of substrate),K m (FraB [2]),k cat (FraB [2]),k cat/K m (FraB [2]),"kcat [3, 4]","kcat/Km [3, 4]","Km [3, 5]","kcat [3, 5]","kcat/Km [3, 5]"
"O=C(O)C[C@H](NCC1(O)O[C@H](COP(=O)(O)O)[C@@H](O)[C@@H]1O)C(=O)O (stereo partly shown) [6‐P‐F‐Asp, 6‐phosphofructose‐aspartate]",~ 40 μM,0.042 ± 0.007 mM,116 ± 12 µM,1.05 ± 0.167 s⁻¹,543 min^−1 mM ^−1,–,–,–,–,–
B1,–,–,–,–,–,0.95 ± 0.012 s⁻¹,"1,357 min^−1 mM ^−1",67 ± 8 µM,1.16 ± 0.00317 s⁻¹,1040 min⁻¹ mM⁻¹
